Assay results taken from patent publication US12172983B2, “EGFR inhibitors” (Blueprint Medicines Corporation, priority 2019, dated 2024).
Like-named read-outs stand apart in the source and are kept apart here.

Assays:
[1] = biological target: T1, EGFR (L858R T790M C797S) (Homo sapiens, UniProt P00533, C797S/L858R/T790M); experiment: Biochemical EGFR inhibition assay (Caliper mobility shift), EGFR LRTMCS mutant; details: inhibitory activity against EGFR LRTMCS mutant; apparent IC50; read-out: Ext Enz LRTMCS
T1 construct: purchased SignalChem E10-122VG
In short: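 Kinase reactions at 25 °C run to 10–20% peptide phosphorylation, stopped with 35 mM EDTA. Phosphorylated product and substrate separated electrophoretically by mobility shift. Apparent IC50 from percent activity versus log compound concentration.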

[2] = test system: phosphorylation of EGFR (Tyr1068) in NCI-H1975 cell line that harbors the EGFR L858R T790M mutations; experiment: NCI-H1975 pEGFR AlphaLISA assay; format: cell-based; details: 4-5 hours incubation, read-out: Ext pEGFR H1975
In short: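 NCI-H1975 cells (EGFR L858R/T790M) seeded overnight, then treated with compound for 4-5 h at 37 °C/5% CO2. After lysis, p-EGFR (Tyr1068) quantified by AlphaLISA SureFire Ultra with acceptor then donor beads; IC50 fitted from percent inhibition versus log concentration.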

[3] = inhibition of phosphorylation of mutant EGFR in NCI-H1975 cells
[4] = Homo sapiens, NCI-H1975, inhibition of phosphorylation of mutant EGFR in NCI-H1975 cells

T1 sequence (P00533 25-1210 T790M/C797S/L858R): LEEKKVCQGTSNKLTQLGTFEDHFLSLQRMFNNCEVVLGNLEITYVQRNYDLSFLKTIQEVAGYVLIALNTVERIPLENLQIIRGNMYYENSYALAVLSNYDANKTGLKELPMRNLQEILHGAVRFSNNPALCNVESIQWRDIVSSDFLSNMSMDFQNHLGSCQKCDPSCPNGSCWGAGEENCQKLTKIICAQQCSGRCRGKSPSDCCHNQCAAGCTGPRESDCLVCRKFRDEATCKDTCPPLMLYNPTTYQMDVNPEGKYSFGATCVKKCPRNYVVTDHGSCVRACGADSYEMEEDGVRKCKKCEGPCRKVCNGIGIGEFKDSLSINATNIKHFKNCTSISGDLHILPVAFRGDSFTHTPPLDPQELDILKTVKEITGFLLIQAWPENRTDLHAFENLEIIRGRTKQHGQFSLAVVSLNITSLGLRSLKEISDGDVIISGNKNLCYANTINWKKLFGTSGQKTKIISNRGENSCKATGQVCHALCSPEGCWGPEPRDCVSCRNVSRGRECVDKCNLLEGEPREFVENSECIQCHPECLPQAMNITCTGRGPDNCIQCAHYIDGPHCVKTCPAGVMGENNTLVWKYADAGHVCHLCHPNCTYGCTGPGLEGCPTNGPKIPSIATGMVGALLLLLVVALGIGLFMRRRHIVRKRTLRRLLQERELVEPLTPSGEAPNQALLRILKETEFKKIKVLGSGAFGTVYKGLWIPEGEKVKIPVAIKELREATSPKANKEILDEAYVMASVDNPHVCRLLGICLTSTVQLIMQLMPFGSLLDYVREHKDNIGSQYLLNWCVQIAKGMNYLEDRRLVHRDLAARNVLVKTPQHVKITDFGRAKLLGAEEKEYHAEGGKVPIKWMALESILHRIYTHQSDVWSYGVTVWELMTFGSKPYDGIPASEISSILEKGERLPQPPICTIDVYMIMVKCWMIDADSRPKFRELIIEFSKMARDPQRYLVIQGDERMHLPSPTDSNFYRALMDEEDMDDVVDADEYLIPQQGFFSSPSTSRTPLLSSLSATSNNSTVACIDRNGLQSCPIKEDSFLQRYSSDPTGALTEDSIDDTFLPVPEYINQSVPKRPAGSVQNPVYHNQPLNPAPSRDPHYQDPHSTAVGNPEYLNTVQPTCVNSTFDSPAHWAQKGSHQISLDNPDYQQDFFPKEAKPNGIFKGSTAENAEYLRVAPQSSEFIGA

Structure (SMILES) | IC50 [1] | IC50 [2, 3] | IC50 [2, 4]
CO[C@@H]1CCN(c2nccc(Nc3cc4c(C(C)C)cnc(N5C[C@H](CS(C)(=O)=O)[C@H]5C)c4cn3)n2)C[C@@H]1O (single isomer, unassigned) [Compound 105, (3S,4R)-1-[4-({8-[(2R,3S)-3-(methanesulfonylmethyl)-2-methylazetidin-1-yl]-5-(propan-2-yl)-2,7-naphthyridin-3-yl}amino)pyrimidin-2-yl]-4-methoxypiperidin-3-ol or (3R,4S)-1-[4-({8-[(2R,3S)-3-(methanesulfonylmethyl)-2-methylazetidin-1-yl]-5-(propan-2-yl)-2,7-naphthyridin-3-yl}amino)pyrimidin-2-yl]-4-methoxypiperidin-3-ol] | ≤ 15 nM | – | ≤ 10 nM
CO[C@H]1CCN(c2nccc(Nc3cc4c(C(C)C)cnc(N5C[C@H](CS(C)(=O)=O)[C@H]5C)c4cn3)n2)C[C@@H]1O (single isomer, unassigned) [Compound 106, (3S,4S)-1-[4-({8-[(2R,3S)-3-(methanesulfonylmethyl)-2-methylazetidin-1-yl]-5-(propan-2-yl)-2,7-naphthyridin-3-yl}amino)pyrimidin-2-yl]-4-methoxypiperidin-3-ol or (3R,4R)-1-[4-({8-[(2R,3S)-3-(methanesulfonylmethyl)-2-methylazetidin-1-yl]-5-(propan-2-yl)-2,7-naphthyridin-3-yl}amino)pyrimidin-2-yl]-4-methoxypiperidin-3-ol] | ≤ 15 nM | – | ≤ 10 nM
CC(C)c1ccc(N2CC(CS(C)(=O)=O)C2)c2cnc(Nc3ccnc(N4C[C@H](F)[C@H](O)C(C)(C)C4)n3)cc12 (single isomer, unassigned) [Compound 109, (4S,5R)-5-fluoro-1-[4-({8-[3-(methanesulfonylmethyl)azetidin-1-yl]-5-(propan-2-yl)isoquinolin-3-yl}amino)pyrimidin-2-yl]-3,3-dimethylpiperidin-4-ol or (4R,5S)-5-fluoro-1-[4-({8-[3-(methanesulfonylmethyl)azetidin-1-yl]-5-(propan-2-yl)isoquinolin-3-yl}amino)pyrimidin-2-yl]-3,3-dimethylpiperidin-4-ol] | ≤ 15 nM | – | ≤ 10 nM
CCS(=O)(=O)CC1CN(c2ccc(C(C)C)c3cc(Nc4ccnc(N5CC[C@@H](O)[C@@](C)(F)C5)n4)ncc23)C1 (single isomer, unassigned) [Compound 110] | ≤ 15 nM | – | ≤ 10 nM
CC(C)c1ccc(N2CC(C)(CS(C)(=O)=O)C2)c2cnc(Nc3ccnc(N4CC[C@@H](O)[C@@](C)(F)C4)n3)cc12 (single isomer, unassigned) [Compound 112] | ≤ 15 nM | – | 10.1 to 20 nM

The remaining lines, values ahead:

IC50 [1] | IC50 [2, 3] | IC50 [2, 4] | Structure (SMILES)
≤ 15 nM | 10.1 to 20 nM | – | CC(C)c1ccc(N2C[C@H](CS(C)(=O)=O)[C@H]2C)c2cnc(Nc3ccnc(N4CC[C@](C)(O)[C@H](O)C4)n3)cc12 (single isomer, unassigned) [Compound 101, (4R)-1-[4-({8-[(2R,3S)-3-(methanesulfonylmethyl)-2-methylazetidin-1-yl]-5-(propan-2-yl)isoquinolin-3-yl}amino)pyrimidin-2-yl]-4-methylpiperidine-3,4-diol or (3S,4R)-1-[4-({8-[(2R,3S)-3-(methanesulfonylmethyl)-2-methylazetidin-1-yl]-5-(propan-2-yl)isoquinolin-3-yl}amino)pyrimidin-2-yl]-4-methylpiperidine-3,4-diol]
≤ 15 nM | – | 20.1 to 30 nM | CC(C)c1ccc(N2C[C@H](CS(C)(=O)=O)[C@H]2C)c2cnc(Nc3ccnc(N4CC[C@@](C)(O)[C@H](O)C4)n3)cc12 (single isomer, unassigned) [Compound 102, (3R,4R)-1-[4-({8-[(2R,3S)-3-(methanesulfonylmethyl)-2-methylazetidin-1-yl]-5-(propan-2-yl)isoquinolin-3-yl}amino)pyrimidin-2-yl]-4-methylpiperidine-3,4-diol or (3S,4S)-1-[4-({8-[(2R,3S)-3-(methanesulfonylmethyl)-2-methylazetidin-1-yl]-5-(propan-2-yl)isoquinolin-3-yl}amino)pyrimidin-2-yl]-4-methylpiperidine-3,4-diol]
≤ 15 nM | – | 10.1 to 20 nM | CO[C@@H]1CCN(c2nccc(Nc3cc4c(C(C)C)ncc(N5C[C@H](CS(C)(=O)=O)[C@H]5C)c4cn3)n2)C[C@@H]1O (single isomer, unassigned) [Compound 103, (3S,4R)-1-(4-(5-isopropyl-8-((2R,3S)-2-methyl-3-(methylsulfonylmethyl)azetidin-1-yl)-2,6-naphthyridin-3-ylamino)pyrimidin-2-yl)-4-methoxypiperidin-3-ol or (3R,4S)-1-(4-(5-isopropyl-8-((2R,3S)-2-methyl-3-(methylsulfonylmethyl)azetidin-1-yl)-2,6-naphthyridin-3-ylamino)pyrimidin-2-yl)-4-methoxypiperidin-3-ol]
≤ 15 nM | – | 10.1 to 20 nM | CO[C@H]1CCN(c2nccc(Nc3cc4c(C(C)C)ncc(N5C[C@H](CS(C)(=O)=O)[C@H]5C)c4cn3)n2)C[C@@H]1O (single isomer, unassigned) [Compound 104, (3S,4S)-1-(4-(5-isopropyl-8-((2R,3S)-2-methyl-3-(methylsulfonylmethyl)azetidin-1-yl)-2,6-naphthyridin-3-ylamino)pyrimidin-2-yl)-4-methoxypiperidin-3-ol or (3R,4R)-1-(4-(5-isopropyl-8-((2R,3S)-2-methyl-3-(methylsulfonylmethyl)azetidin-1-yl)-2,6-naphthyridin-3-ylamino)pyrimidin-2-yl)-4-methoxypiperidin-3-ol]
≤ 15 nM | 10.1 to 20 nM | – | CO[C@H]1CCN(c2nccc(Nc3cc4c(C(C)C)cnc(N5CC(C[S@@](C)(=N)=O)[C@H]5C)c4cn3)n2)C[C@H]1F (single isomer, unassigned) [Compound 107, (1S)-(((2R)-1-(6-((2-((3R,4S)-3-fluoro-4-methoxypiperidin-1-yl)pyrimidin-4-yl)amino)-4-isopropyl-2,7-naphthyridin-1-yl)-2-methylazetidin-3-yl)methyl)(imino)(methyl)-λ^6-sulfanone or (1R)-(((2R)-1-(6-((2-((3R,4S)-3-fluoro-4-methoxypiperidin-1-yl)pyrimidin-4-yl)amino)-4-isopropyl-2,7-naphthyridin-1-yl)-2-methylazetidin-3-yl)methyl)(imino)(methyl)-λ^6-sulfanone]
≤ 15 nM | ≤ 10 nM | – | CO[C@H]1CCN(c2nccc(Nc3cc4c(C(C)C)cnc(N5CC(C[S@@](C)(=N)=O)[C@H]5C)c4cn3)n2)C[C@H]1F (single isomer, unassigned) [Compound 108, (1S)-(((2R)-1-(6-((2-((3R,4S)-3-fluoro-4-methoxypiperidin-1-yl)pyrimidin-4-yl)amino)-4-isopropyl-2,7-naphthyridin-1-yl)-2-methylazetidin-3-yl)methyl)(imino)(methyl)-λ^6-sulfanone or (1R)-(((2R)-1-(6-((2-((3R,4S)-3-fluoro-4-methoxypiperidin-1-yl)pyrimidin-4-yl)amino)-4-isopropyl-2,7-naphthyridin-1-yl)-2-methylazetidin-3-yl)methyl)(imino)(methyl)-λ^6-sulfanone]
